pIC50: −log10 of the molar value.
Legend:
[1] = test system: Human immunodeficiency virus 1; assay: Antiviral activity against R5 tropic HIV1 BaL infected in human JC53-BL cells expressing CCR5 after 2 days by cell-cell fusion assay; format: functional, organism-based; settings: Human immunodeficiency virus 1, BaL, JC53BL, 48 h
[2] = biological target: C-C chemokine receptor type 5 (Homo sapiens, UniProt P51681); assay: Antagonist activity at CCR5 receptor by radiolabeled RANTES binding assay
[3] = Metabolic stability in human liver microsomes assessed as clearance; format: ADME, Microsome
[4] = Mean retention time in rat at 0.5 mg/kg, iv; format: ADME, organism-based; parameters: dose 0.5 mg/kg, route intravenous; settings: in vivo
Rattus norvegicus [5] = assay: Cmax in rat at 2 mg/kg, po; format: ADME, organism-based; parameters: dose 2 mg/kg, route oral; settings: in vivo
[6] = biological target: C-X-C chemokine receptor type 4 (Homo sapiens, UniProt P61073); assay: Inhibition of CXCR4 receptor
Chain of C-X-C chemokine receptor type 4 (P61073 whole entry): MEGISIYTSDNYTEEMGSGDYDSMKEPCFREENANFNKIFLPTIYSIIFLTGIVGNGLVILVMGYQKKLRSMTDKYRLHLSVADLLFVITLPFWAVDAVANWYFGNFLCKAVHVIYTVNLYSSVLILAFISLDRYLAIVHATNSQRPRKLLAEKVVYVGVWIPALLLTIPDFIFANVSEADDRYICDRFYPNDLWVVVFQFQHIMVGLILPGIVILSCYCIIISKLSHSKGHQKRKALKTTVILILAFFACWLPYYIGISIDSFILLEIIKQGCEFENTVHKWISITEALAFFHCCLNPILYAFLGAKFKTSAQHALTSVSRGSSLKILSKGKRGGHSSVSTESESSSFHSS

Rattus norvegicus [7] = assay: AUC in rat at 2 mg/kg, po; format: ADME, organism-based, Plasma; parameters: dose 2 mg/kg, route oral; settings: in vivo
[8] = biological target: T1, C-C chemokine receptor type 6 (Homo sapiens, UniProt P51684); assay: Inhibition of CCR6 receptor
T1 sequence (P51684 whole entry): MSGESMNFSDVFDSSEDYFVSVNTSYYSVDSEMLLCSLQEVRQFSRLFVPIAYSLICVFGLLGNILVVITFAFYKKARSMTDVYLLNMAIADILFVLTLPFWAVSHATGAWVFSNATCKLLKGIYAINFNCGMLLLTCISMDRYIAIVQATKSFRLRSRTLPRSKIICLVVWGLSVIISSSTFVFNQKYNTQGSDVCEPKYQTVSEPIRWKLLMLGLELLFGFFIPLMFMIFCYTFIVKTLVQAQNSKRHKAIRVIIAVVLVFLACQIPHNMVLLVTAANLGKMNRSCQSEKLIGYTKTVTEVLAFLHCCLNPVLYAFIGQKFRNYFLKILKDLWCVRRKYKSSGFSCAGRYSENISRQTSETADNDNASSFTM

[9] = biological target: T2, C-C chemokine receptor type 4 (Homo sapiens, UniProt P51679); assay: Inhibition of CCR4 receptor
T2 sequence (P51679 whole entry): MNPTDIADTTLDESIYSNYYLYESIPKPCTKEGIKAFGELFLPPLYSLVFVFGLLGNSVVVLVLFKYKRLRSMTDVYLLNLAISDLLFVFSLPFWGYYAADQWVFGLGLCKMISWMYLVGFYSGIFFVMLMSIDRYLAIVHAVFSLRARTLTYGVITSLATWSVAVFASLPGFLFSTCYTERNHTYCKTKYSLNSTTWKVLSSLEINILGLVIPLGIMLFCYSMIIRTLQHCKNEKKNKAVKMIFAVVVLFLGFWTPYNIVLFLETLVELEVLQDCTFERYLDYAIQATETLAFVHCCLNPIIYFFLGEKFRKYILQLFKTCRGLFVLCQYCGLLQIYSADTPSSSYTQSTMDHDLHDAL

[10] = biological target: T3, C-C chemokine receptor type 1 (Homo sapiens, UniProt P32246); assay: Inhibition of CCR1 receptor
T3 sequence (P32246 whole entry): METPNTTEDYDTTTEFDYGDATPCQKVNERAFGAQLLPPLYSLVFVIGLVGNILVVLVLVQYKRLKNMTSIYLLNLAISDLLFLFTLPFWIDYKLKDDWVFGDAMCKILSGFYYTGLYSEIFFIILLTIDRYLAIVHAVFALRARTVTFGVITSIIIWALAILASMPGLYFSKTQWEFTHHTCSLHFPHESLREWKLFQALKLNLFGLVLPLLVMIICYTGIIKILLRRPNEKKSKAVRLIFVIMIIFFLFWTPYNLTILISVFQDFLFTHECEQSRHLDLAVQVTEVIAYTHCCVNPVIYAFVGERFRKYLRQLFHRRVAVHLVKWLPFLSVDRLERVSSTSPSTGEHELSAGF

[11] = biological target: C-C chemokine receptor type 2 (Homo sapiens, UniProt P41597); assay: Inhibition of CCR2 receptor
Chain of C-C chemokine receptor type 2 (P41597 whole entry): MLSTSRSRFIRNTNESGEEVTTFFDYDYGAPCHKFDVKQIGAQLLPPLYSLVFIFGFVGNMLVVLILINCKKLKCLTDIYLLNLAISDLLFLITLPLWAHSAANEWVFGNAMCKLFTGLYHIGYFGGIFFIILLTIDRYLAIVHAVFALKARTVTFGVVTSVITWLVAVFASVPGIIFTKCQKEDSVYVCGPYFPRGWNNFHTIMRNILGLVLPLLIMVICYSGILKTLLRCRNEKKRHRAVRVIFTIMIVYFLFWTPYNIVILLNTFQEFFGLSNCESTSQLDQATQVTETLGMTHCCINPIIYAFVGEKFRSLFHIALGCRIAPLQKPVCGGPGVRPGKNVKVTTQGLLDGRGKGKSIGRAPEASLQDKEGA

[12] = Oral bioavailability in rat at 2 mg/kg; format: ADME, organism-based; settings: in vivo
[13] = Half life in rat at 0.5 mg/kg, iv; format: ADME, organism-based; parameters: dose 0.5 mg/kg, route intravenous; settings: in vivo
Rattus norvegicus [14] = assay: Tmax in rat at 2 mg/kg, po; format: ADME, organism-based; parameters: dose 2 mg/kg, route oral; settings: in vivo
[15] = Volume of distribution at steady state in rat at 0.5 mg/kg, iv; format: ADME, organism-based; parameters: dose 0.5 mg/kg, route intravenous; settings: in vivo, read-out: Vdss
[16] = AUC in rat at 0.5 mg/kg, iv; format: ADME, organism-based; parameters: dose 0.5 mg/kg, route intravenous; settings: plasma
hERG (KCNH2) = hERG (KCNH2) (Homo sapiens, UniProt Q12809); assay: Inhibition of human ERG receptor
Chain of hERG (KCNH2) (Q12809 whole entry): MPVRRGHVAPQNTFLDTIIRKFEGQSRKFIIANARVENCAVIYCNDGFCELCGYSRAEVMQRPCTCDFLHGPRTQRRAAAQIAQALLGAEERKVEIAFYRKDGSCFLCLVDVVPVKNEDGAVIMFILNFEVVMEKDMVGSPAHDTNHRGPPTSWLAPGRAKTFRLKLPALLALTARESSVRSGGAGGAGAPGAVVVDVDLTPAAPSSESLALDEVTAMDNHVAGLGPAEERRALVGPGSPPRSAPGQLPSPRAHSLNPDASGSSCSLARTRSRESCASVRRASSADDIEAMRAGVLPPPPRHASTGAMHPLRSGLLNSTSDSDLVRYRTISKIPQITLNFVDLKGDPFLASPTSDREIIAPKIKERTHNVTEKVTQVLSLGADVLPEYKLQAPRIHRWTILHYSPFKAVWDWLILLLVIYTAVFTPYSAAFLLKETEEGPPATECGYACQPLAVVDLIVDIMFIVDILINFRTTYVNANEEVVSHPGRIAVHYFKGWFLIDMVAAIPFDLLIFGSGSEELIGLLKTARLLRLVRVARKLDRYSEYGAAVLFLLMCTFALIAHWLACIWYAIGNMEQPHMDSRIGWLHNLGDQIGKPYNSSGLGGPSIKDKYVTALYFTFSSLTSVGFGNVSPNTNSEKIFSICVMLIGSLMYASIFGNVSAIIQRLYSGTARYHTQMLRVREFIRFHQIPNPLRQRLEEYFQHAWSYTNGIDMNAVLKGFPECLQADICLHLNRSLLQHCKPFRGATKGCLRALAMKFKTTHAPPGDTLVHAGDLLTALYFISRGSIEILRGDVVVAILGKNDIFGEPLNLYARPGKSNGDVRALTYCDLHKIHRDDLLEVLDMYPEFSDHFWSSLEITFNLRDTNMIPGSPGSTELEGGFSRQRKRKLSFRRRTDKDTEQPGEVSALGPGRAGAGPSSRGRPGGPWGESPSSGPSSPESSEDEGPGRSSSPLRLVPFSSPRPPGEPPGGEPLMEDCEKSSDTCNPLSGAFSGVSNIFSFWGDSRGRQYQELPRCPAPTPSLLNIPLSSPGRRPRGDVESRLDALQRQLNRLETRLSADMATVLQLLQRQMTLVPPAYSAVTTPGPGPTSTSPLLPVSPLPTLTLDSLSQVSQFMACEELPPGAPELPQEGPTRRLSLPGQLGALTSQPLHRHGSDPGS

[17] = Mean retention time in rat at 2 mg/kg, po; format: ADME, organism-based; parameters: dose 2 mg/kg, route oral; settings: in vivo
[18] = biological target: T4, C-C chemokine receptor type 3 (Homo sapiens, UniProt P51677); assay: Inhibition of CCR3 receptor
T4 sequence (P51677 whole entry): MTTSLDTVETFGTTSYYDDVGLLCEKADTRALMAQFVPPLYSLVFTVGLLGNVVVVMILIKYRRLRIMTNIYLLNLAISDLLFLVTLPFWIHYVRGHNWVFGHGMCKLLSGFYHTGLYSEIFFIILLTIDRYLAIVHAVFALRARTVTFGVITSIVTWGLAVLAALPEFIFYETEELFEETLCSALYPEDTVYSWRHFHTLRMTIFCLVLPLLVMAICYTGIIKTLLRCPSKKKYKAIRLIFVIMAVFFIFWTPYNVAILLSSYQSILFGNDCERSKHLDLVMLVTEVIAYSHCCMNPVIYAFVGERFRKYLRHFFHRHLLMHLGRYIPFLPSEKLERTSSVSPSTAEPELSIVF

[19] = test system: Human immunodeficiency virus 1; assay: Inhibition of R5 tropic HIV1 BaL replication in human PBMC; format: functional, organism-based; settings: Human immunodeficiency virus 1, BaL
Rattus norvegicus [20] = assay: Half life in rat at 2 mg/kg, po; format: ADME, organism-based; parameters: dose 2 mg/kg, route oral; settings: in vivo
[21] = Clearance in rat at 0.5 mg/kg, iv; format: ADME, organism-based; parameters: dose 0.5 mg/kg, route intravenous; settings: in vivo

Chain of C-C chemokine receptor type 5 (P51681 whole entry): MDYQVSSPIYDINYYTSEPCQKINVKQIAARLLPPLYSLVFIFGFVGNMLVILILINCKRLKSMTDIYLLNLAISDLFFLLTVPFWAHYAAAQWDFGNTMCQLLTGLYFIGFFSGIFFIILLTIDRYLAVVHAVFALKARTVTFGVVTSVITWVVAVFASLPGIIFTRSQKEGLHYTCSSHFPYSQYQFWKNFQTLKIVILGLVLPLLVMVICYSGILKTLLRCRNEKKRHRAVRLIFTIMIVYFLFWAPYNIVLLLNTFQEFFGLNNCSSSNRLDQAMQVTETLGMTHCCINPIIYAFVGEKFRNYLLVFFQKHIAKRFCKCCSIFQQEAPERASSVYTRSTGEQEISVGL

Row | SMILES | pIC50 [1] | pIC50 [2] | microsomal CLint [3] [µL/min/mg] | also measured
1 | CCCCC1C(=O)N(C[C@H]2CC[C@H](O)CC2)CCC12CCN(C1(C)CCN(C(=O)c3c(C)cc(C#N)nc3C)CC1)CC2 (stereo partly drawn) | > 8.60 | 7.51 | – | –
2 | CCCCC1CN(S(=O)(=O)C2CC2)CCC12CCN(C1(C)CCN(C(=O)c3c(C)ncnc3C)CC1)CC2 (stereo not drawn) | 8.15 | 7.66 | 100 | –
3 | CCCOC1CN(S(=O)(=O)C2CC2)CCC12CCN(C1(C)CCN(C(=O)c3c(C)ncnc3C)CC1)CC2 (stereo not drawn) | 6.40 | 7.10 | – | –
4 | CCCCC1CN(S(=O)(=O)N(C)C)CCC12CCN(C1(C)CCN(C(=O)c3c(C)ncnc3C)CC1)CC2 (stereo not drawn) | 8.15 | 7.22 | 207 | –
5 | CCCCC1CN(S(=O)(=O)c2cn(C)cn2)CCC12CCN(C1(C)CCN(C(=O)c3c(C)ncnc3C)CC1)CC2 (stereo not drawn) | 8.15 | 7.57 | 96 | –
6 | CCCCC1CN(S(C)(=O)=O)CCC12CCN(C1(C)CCN(C(=O)c3c(C)ncnc3C)CC1)CC2 (stereo not drawn) | 7.00 | 7.60 | 7 | –
7 | CCCCC1C(=O)N(CC2CCN(C(=O)OC)CC2)CCC12CCN(C1(C)CCN(C(=O)c3c(C)ncnc3C)CC1)CC2 (stereo not drawn) | 8.10 | 7.22 | – | –
8 | CCCCC1C(=O)N(C[C@H]2CC[C@H](OCC)CC2)CCC12CCN(C1(C)CCN(C(=O)c3c(C)ncnc3C)CC1)CC2 (stereo partly drawn) | 8.30 | 7.52 | – | MRT [4]: 2.65 h; Cmax (Rattus norvegicus [5]): 2.03 ng/mL; pIC50 [6]: < 4.30; AUC (Rattus norvegicus [7]): 910 ng·h/mL; pIC50 [8]: < 4.30; pIC50 [9]: < 4.30; pIC50 [10]: < 4.30; pIC50 [11]: < 4.30; bioavailability [12]: 66%; half-life [13]: 3.8 h; Tmax (Rattus norvegicus [14]): 1 h; Vd [15]: 4.71 L/kg; AUC [16]: 334 ng·h/mL; IC20 (hERG (KCNH2)): 3000 nM; MRT [17]: 4.33 h; pIC50 [18]: < 4.30; pIC50 [19]: 8.85; IC90 [19]: 7.5 nM; t1/2 (Rattus norvegicus [20]): 4.19 h; clearance [21]: 24.1 mL/min/kg
9 | CCCCC1C(=O)N(CC2CCOCC2)CCC12CCN(C1(C)CCN(C(=O)c3c(C)ncnc3C)CC1)CC2 (stereo not drawn) | 8.40 | 7.52 | – | –
10 | CCCCC1CN(C(=O)OC2CCOCC2)CCC12CCN(C1(C)CCN(C(=O)c3c(C)ncnc3C)CC1)CC2 (stereo not drawn) | < 5.30 | 6.46 | – | –
11 | CCCC[C@H]1CN(C(=O)NC)CCC12CCN(C1(C)CCN(C(=O)c3c(C)ncnc3C)CC1)CC2 | 8.40 | 7.46 | – | –
12 | CCCC[C@@H]1C(=O)N(C[C@H]2CC[C@H](OCC)CC2)CCC12CCN(C1(C)CCN(C(=O)c3c(C)ncnc3C)CC1)CC2 | – | – | – | pIC50 [19]: 9.30; IC90 [19]: 3 nM
13 | Cc1ncnc(C)c1C(=O)N1CCC(C)(N2CCC3(CC2)CCN(S(C)(=O)=O)CC3c2ccccc2)CC1 (stereo not drawn) | 5.72 | 6.98 | – | –
14 | CCCCC1CN(S(=O)(=O)C2CCN(C(C)=O)CC2)CCC12CCN(C1(C)CCN(C(=O)c3c(C)ncnc3C)CC1)CC2 (stereo not drawn) | 8.00 | 7.11 | 70 | –
